Experimental data: patent US20150336889A1, “INDOLE DERIVATIVES, PHARMACEUTICAL COMPOSITIONS CONTAINING SUCH INDOLES AND THEIR USE AS DNA METHYLATION MODULATORS” (IKERCHEM, S.L., priority 2012, published 2015)

Columns and labels:
Human DNMT1 = target: T1, Human DNMT1 (Homo sapiens, UniProt P26358); test: DNMT1 enzymatic activity inhibition, radioisotope-based 3H-SAM filter binding assay; assay type: biochemical; details: 1 μM SAM, 25 nM DNMT1, 0.005 mg/ml Poly(dI-dC), 30° C. 1 hour, 10-dose
T1 construct: a-a 2-1632, with N-terminal GST tag; GST (N)
T1 sequence (P26358 2-1632 isoform P26358-2): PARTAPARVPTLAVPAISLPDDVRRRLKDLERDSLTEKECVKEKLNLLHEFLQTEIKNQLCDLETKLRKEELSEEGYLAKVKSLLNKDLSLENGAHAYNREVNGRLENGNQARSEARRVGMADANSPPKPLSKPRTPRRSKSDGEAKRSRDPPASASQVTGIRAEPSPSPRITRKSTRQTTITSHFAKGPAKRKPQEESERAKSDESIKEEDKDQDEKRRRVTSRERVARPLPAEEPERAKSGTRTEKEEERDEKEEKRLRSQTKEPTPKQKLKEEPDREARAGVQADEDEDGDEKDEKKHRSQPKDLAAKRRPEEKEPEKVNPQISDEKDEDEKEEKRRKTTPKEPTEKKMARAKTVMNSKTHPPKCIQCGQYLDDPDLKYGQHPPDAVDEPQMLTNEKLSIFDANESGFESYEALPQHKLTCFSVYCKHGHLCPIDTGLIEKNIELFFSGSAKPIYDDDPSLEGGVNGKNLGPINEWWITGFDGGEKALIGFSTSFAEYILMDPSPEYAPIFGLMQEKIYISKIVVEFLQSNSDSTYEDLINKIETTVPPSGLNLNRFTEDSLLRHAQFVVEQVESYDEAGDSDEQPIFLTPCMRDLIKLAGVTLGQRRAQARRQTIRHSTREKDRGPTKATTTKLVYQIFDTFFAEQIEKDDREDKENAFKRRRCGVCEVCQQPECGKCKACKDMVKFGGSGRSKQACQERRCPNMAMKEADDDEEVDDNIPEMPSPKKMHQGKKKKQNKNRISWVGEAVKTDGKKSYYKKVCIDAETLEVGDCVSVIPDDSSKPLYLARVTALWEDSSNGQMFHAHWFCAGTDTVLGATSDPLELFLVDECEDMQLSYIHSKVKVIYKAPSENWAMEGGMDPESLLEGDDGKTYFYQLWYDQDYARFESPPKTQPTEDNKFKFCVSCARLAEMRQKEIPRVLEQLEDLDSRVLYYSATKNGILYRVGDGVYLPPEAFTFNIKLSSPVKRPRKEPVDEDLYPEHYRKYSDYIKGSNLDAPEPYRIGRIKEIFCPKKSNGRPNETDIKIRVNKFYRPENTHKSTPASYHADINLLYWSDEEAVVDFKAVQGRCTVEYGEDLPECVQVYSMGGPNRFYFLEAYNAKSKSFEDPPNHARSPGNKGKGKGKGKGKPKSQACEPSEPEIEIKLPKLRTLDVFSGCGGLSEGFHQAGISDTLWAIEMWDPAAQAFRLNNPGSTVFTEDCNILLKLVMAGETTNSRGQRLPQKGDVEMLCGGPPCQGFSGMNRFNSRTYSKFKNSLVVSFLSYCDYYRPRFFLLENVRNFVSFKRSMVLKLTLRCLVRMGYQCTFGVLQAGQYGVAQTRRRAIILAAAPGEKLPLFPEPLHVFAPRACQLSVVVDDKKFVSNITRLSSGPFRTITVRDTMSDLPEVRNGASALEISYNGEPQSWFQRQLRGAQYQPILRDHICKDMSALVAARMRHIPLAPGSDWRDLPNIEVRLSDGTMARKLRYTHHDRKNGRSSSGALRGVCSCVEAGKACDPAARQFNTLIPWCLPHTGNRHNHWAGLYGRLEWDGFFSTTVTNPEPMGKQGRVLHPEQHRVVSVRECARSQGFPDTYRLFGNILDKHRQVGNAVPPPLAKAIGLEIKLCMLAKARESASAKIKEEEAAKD
Protocol: The inhibition of the enzymatic activity of DNMT1 was tested using low volume radioisotope-based assay which uses tritium-labeled AdoMet (^3H-SAM) as a methyl donor. Inhibitors diluted in DMSO were added by using acoustic technology (Echo550, Labcyte Inc. Sunnyvale, Calif.) into enzyme/substrate mixture in nano-liter range. The reaction was initiated by the addition of ^3H-SAM, and incubated at 30° C. for 1 hour. Total final methylations on the substrate poly(dI-dC) were detected by a filter binding approach. Data analysis was performed using GraphPad Prism software (La Jolla, Calif.) for IC50 curve fits.

MDA-MB-468 = test: Cancer cell growth inhibition, MDA-MB-468; assay type: cell-based; details: Homo sapiens; Breast, MDA-MB-468, cell viability, 72 h
Protocol: (§1) Cell culture-based assays were used to evaluate the ability of compounds of the invention to inhibit cancer cell growth inhibition.
(§2) Cells were obtained from the American Type Culture Collection (ATCC) and European Collection of Cell Cultures (ECACC).
(§3) Cells were thawed in their appropriate media plus supplements (see table below). Cells were passaged at confluence by washing once in HBSS cation-free followed by a 3 minutes incubation with trypsin ([0.5 μg/ml]/EDTA [0.2 μg/ml]) (Gibco-BRL, 15400054) solution in HBSS at 37° C. (except non-adherent cell lines), and transferred to their appropriate media plus supplements. Prior to seeding at defined cell concentration, cells were recovered in medium, centrifuged and taken up in medium, and counted.
(§4) Cells were plated at 3000/5000/10000 cells/well in 100 μl media in tissue culture 96 well plates (Cultek). After 24 h, media was supplemented by 100 μl/well of diluted IPDNs at 100 μM.
(§5) The Hexosaminidase assay was used for the adherent cell lines, whereas the AlamarBlue® assay was used for the non-adherent cell lines.
(§6) Dose-response curves were generated by serial dilutions (1:1) of the compounds. […] Reagent blanks, containing media plus colorimetric reagent without cells were run on each plate. Blank values were subtracted from test values and were routinely 5-10% of uninhibited control values. Plates were incubated 72 h, and living cell number was determined by AlamarBlue® and Hexosaminidase test. The advantages of using those assays are that both can be done in the same microwell plate. AlamarBlue® assay: plates were incubated 72 h and living cell number was determined by AlamarBlue (Biosource DAL1100). After 4 h incubation at 37° C., relative fluorescent intensity, which correlates with the number of living cells, was read in a Cytofluor plate reader (Millipore) at 535/590 nm (Excitation/emission). The hexosaminidase activity was measured according to the following protocol: the media was removed and cells were washed once with PBS. […]

PC3 = test: Cancer cell growth inhibition, PC3; assay type: cell-based; details: Homo sapiens, PC-3; Prostate, PC3, cell viability, 72 h
Protocol: as §1, §2, §3, §4, §5
(§7) Dose-response curves were generated by serial dilutions (1:1) of the compounds. […] Reagent blanks, containing media plus colorimetric reagent without cells were run on each plate. Blank values were subtracted from test values and were routinely 5-10% of uninhibited control values. Plates were incubated 72 h, and living cell number was determined by AlamarBlue® and Hexosaminidase test. The advantages of using those assays are that both can be done in the same microwell plate. AlamarBlue® assay: plates were incubated 72 h and living cell number was determined by AlamarBlue (Biosource DAL1100). After 4 h incubation at 37° C., relative fluorescent intensity, which correlates with the number of living cells, was read in a Cytofluor plate reader (Millipore) at 535/590 nm (Excitation/emission). The hexosaminidase activity was measured according to the following protocol: the media was removed and cells were washed once with PBS.
(§8) Data analysis was done by calculating the percentage of cell viability normalized in front of negative control values, which were considered as a 100%. The curve was adjusted using a sigmoidal dose-response (variable slope) equation and EC50 values were obtained from the equation
(§9) where, X is the logarithm of concentration. Y is the response. Bottom is the Y value at the bottom plateau Top is the Y value at the top plateau LogEC50 is the X value when the response is halfway between Bottom and Top. With different kinds of variables, this variable is sometimes called ED50 (effective dose, 50%), or IC50 (inhibitory concentration, 50%, used when the curve goes downhill).

LnCaP = test: Cancer cell growth inhibition, LnCaP; assay type: cell-based; details: Homo sapiens, Prostate, cell viability, 72 h
Protocol: as §1, §2, §3, §4, §5, §7, §8, §9

HCT-116 = test: Cancer cell growth inhibition, HCT-116; assay type: cell-based; details: Homo sapiens; Colorectal, HCT-116, cell viability, 72 h
Protocol: as §1, §2, §3, §4, §5, §7, §8, §9

HT-29 = test: Cancer cell growth inhibition, HT-29; assay type: cell-based; details: Homo sapiens; Colorectal, HT-29, cell viability, 72 h
Protocol: as §1, §2, §3, §4, §5, §6

A-549 = test: Cancer cell growth inhibition, A-549; assay type: cell-based; details: Homo sapiens, A549; Lung, A-549, cell viability, 72 h
Protocol: as §1, §2, §3, §4, §5, §7, §8, §9

NCI-H358 = test: Cancer cell growth inhibition, NCI-H358; assay type: cell-based; details: Homo sapiens; Lung, NCI-H358, cell viability, 72 h
Protocol: as §1, §2, §3, §4, §5, §7, §8, §9

Panc-1 = test: Cancer cell growth inhibition, Panc-1; assay type: cell-based; details: Homo sapiens; Pancreatic, Panc-1, cell viability, 72 h
Protocol: as §1, §2, §3, §4, §5, §7, §8, §9

MDA-MB-435 = test: Cancer cell growth inhibition, MDA-MB-435; assay type: cell-based; details: Homo sapiens; Melanoma, MDA-MB-435, cell viability, 72 h
Protocol: as §1, §2, §3, §4, §5, §7, §8, §9

143B = test: Cancer cell growth inhibition, 143B; assay type: cell-based; details: Homo sapiens, Osteosarcoma, cell viability, 72 h
Protocol: as §1, §2, §3, §4, §5, §7, §8, §9

Daoy = test: Cancer cell growth inhibition, Daoy; assay type: cell-based; details: Homo sapiens, Brain, cell viability, 72 h
Protocol: as §1, §2, §3, §4, §5, §7, §8, §9

U-87MG = test: Cancer cell growth inhibition, U-87MG; assay type: cell-based; details: Homo sapiens, Brain, cell viability, 72 h
Protocol: as §1, §2, §3, §4, §5, §7, §8, §9

A-431 = test: Cancer cell growth inhibition, A-431; assay type: cell-based; details: Homo sapiens; Epidermoid, A-431, cell viability, 72 h
Protocol: as §1, §2, §3, §4, §5, §7, §8, §9

CCFR-CEM = test: Cancer cell growth inhibition, CCFR-CEM; assay type: cell-based; details: Hematologic, cell viability, 72 h
Protocol: as §1, §2, §3, §4, §5, §7, §8, §9

Jurkat = test: Cancer cell growth inhibition, Jurkat; assay type: cell-based; details: Homo sapiens, Hematologic, cell viability, 72 h
Protocol: as §1, §2, §3, §4, §5, §7, §8, §9

RAMOS = test: Cancer cell growth inhibition, RAMOS; assay type: cell-based; details: Homo sapiens, Hematologic, cell viability, 72 h
Protocol: as §1, §2, §3, §4, §5, §7, §8, §9

MCF-7 = test: Cancer cell growth inhibition, MCF-7; assay type: cell-based; details: Homo sapiens, MCF7; Breast, MCF-7, cell viability, 72 h
Protocol: as §1, §2, §3, §4, §5, §7, §8, §9

T47D = test: Cancer cell growth inhibition, T47D; assay type: cell-based; details: Homo sapiens, Breast, cell viability, 72 h
Protocol: as §1, §2, §3, §4, §5, §7, §8, §9

DU-145 = test: Cancer cell growth inhibition, DU-145; assay type: cell-based; details: Homo sapiens; Prostate, DU-145, cell viability, 72 h
Protocol: as §1, §2, §3, §4, §5, §6

Colo205 = test: Cancer cell growth inhibition, Colo205; assay type: cell-based; details: Homo sapiens, COLO 205; Colorectal, Colo205, cell viability, 72 h
Protocol: as §1, §2, §3, §4, §5, §6

LoVo = test: Cancer cell growth inhibition, LoVo; assay type: cell-based; details: Homo sapiens, Colorectal, cell viability, 72 h
Protocol: as §1, §2, §3, §4, §5, §6

SW-480 = test: Cancer cell growth inhibition, SW-480; assay type: cell-based; details: Homo sapiens, SW480; Colorectal, SW-480, cell viability, 72 h
Protocol: as §1, §2
as §3, with “counted. […]” for “counted.”
(§10) Dose-response curves were generated by serial dilutions (1:1) of the compounds. […] Plates were incubated 72 h, and living cell number was determined by AlamarBlue® and Hexosaminidase test. […] AlamarBlue® assay: plates were incubated 72 h and living cell number was determined by AlamarBlue (Biosource DAL1100). After 4 h incubation at 37° C., relative fluorescent intensity, which correlates with the number of living cells, was read in a Cytofluor plate reader (Millipore) at 535/590 nm (Excitation/emission). The hexosaminidase activity was measured according to the following protocol: the media was removed and cells were washed once with PBS. […]

LS174T = test: Cancer cell growth inhibition, LS174T; assay type: cell-based; details: Homo sapiens, Colorectal, cell viability, 72 h
Protocol: as §1, §2
as §3, with “counted. […]” for “counted.”
as §10

NCI-H1975 = test: Cancer cell growth inhibition, NCI-H1975; assay type: cell-based; details: Homo sapiens; Lung, NCI-H1975, cell viability, 72 h
Protocol: as §1, §2, §3, §4, §5, §7, §8, §9

NCI-H1650 = test: Cancer cell growth inhibition, NCI-H1650; assay type: cell-based; details: Homo sapiens; Lung, NCI-H1650, cell viability, 72 h
Protocol: as §1, §2, §3, §4, §5, §6

HT-1080 = test: Cancer cell growth inhibition, HT-1080; assay type: cell-based; details: Homo sapiens; HT-1080, cell viability, 72 h
Protocol: as §1, §2, §3, §4, §5, §7, §8, §9

MiaPaCa-2 = test: Cancer cell growth inhibition, MiaPaCa-2; assay type: cell-based; details: Homo sapiens, MIA PaCa-2; Pancreatic, MiaPaCa-2, cell viability, 72 h
Protocol: as §1, §2, §3, §4, §5, §7, §8, §9

SK-MEL-28 = test: Cancer cell growth inhibition, SK-MEL-28; assay type: cell-based; details: Homo sapiens; Melanoma, SK-MEL-28, cell viability, 72 h
Protocol: as §1, §2, §3, §4, §5, §6

U-373MG = test: Cancer cell growth inhibition, U-373MG; assay type: cell-based; details: Homo sapiens, U373 MG, Brain, cell viability, 72 h
Protocol: as §1, §2, §3, §4, §5, §6

SK-OV-3 = test: Cancer cell growth inhibition, SK-OV-3; assay type: cell-based; details: Homo sapiens; Ovarian, SK-OV-3, cell viability, 72 h
Protocol: as §1, §2, §3, §4, §5, §6

K562 = test: Cancer cell growth inhibition, K562; assay type: cell-based; details: Homo sapiens; Hematologic, K562, cell viability, 72 h
Protocol: as §1, §2, §3, §4, §5, §6

RPMI-8226 = test: Cancer cell growth inhibition, RPMI-8226; assay type: cell-based; details: Homo sapiens; Multiple Myelome, RPMI-8226, cell viability, 72 h
Protocol: as §1, §2, §3, §4, §5, §7, §8, §9

Row | IC50 (Human DNMT1) [µM] | EC50 (PC3) [µM] | EC50 (LnCaP) [µM] | EC50 (HCT-116) [µM] | EC50 (A-549) [µM] | EC50 (NCI-H358) [µM] | EC50 (Panc-1) [µM] | EC50 (MDA-MB-435) [µM] | EC50 (143B) [µM] | EC50 (Daoy) [µM] | EC50 (U-87MG) [µM] | EC50 (CCFR-CEM) [µM] | EC50 (Jurkat) [µM] | EC50 (RAMOS) [µM] | SMILES | also measured
1 | 6.85 | 48 | 27 | 96 | 93 | 50 | 55 | 23 | 19 | 50 | 22 | 34 | 56 | 55 | COc1cc(OC)c2c(-c3ccc(O)c(O)c3)cn(CC(=O)c3ccc(O)c(O)c3)c2c1 [Example 8, 1-(3,4-dihydroxyphenyl)-2-[3-(3,4-dihydroxyphenyl)-4,6-dimethoxy-1H-indol-1-yl]ethanone] | EC50 (MDA-MB-468): 94 µM; EC50 (HT-29): 59 µM; EC50 (A-431): 59 µM
2 | 39.4 | 26 | 30 | 22 | 35 | 51 | 23 | 11 | 99 | 6.6 | 50 | 7.6 | 8.9 | 12 | COc1cc(OC)c2c(-c3ccc(O)c(O)c3O)cn(CC(=O)c3ccc(O)c(O)c3O)c2c1 [Example 11, 2-[4,6-dimethoxy-3-(2,3,4-trihydroxyphenyl)-1H-indol-1-yl]-1-(2,3,4-trihydroxyphenyl)ethanone] | EC50 (MCF-7): 12 µM; EC50 (T47D): 30 µM; EC50 (DU-145): 47 µM; EC50 (Colo205): 24 µM; EC50 (LoVo): 50 µM; EC50 (SW-480): 24 µM; EC50 (LS174T): 62 µM; EC50 (NCI-H1975): 30 µM; EC50 (NCI-H1650): 57 µM; EC50 (HT-1080): 20 µM; EC50 (MiaPaCa-2): 65 µM; EC50 (SK-MEL-28): 33 µM; EC50 (U-373MG): 58 µM; EC50 (SK-OV-3): 73 µM; EC50 (K562): 69 µM; EC50 (RPMI-8226): 60 µM
